Measurements from patent US8088426B2, “Kokumi flavour compounds and use” (priority 2005, dated 2012).
“Also recorded” adds a separate entry of the source.

Columns and labels:
Assay type in all cases: in vivo
trained sensory panel [1] = assay: Sensory triangle test, kokumi taste in chicken broth; conditions: for Sensory descriptors: pH 6.5, versus broth without additives
Experimental: Unless otherwise indicated, all sensory tests are triangle tests and are performed according to the guidelines in “Amtliche Sammlung von Untersuchungsverfahren nach § 35 LMBG (Lebensmittel-und Bedarfsgegenständegesetz)”; L 00.90 7, Untersuchung von Lebensmitteln, Sensorische Prüfverfahren, Dreiecksprüfung (Übernahme der gleichnahmigen Deutschen Norm DIN ISO 4120, Ausgabe Januar 1995), as follows:
The sensory panel is trained to evaluate the taste of aqueous solutions (4 ml each) of the following standard taste compounds by using a triangle test as described in the literature (Wieser and Belitz, Z. Lebensm. Unters. Forsch., 1975, 159, 65-72): sucrose (40 mmol/L) for sweet taste; citric acid (5 mmol/L) for sour taste; NaCl (12 mmol/L) for salt taste; caffeine (2 mmol/L) for bitter taste; and monosodium glutamate (MSG) (6 mmol/L) for umami taste. For kokumi taste, a solution of GSH (glutathione, 10 mmol/L) in diluted chicken broth concentrate (Goumet Bouillon Huhn, Maggi, Singen, Germany; 3 g/100 g bottled water (Evian®)) is prepared and compared to the taste of chicken broth with no glutathione added.
All sensory analyses are performed in a sensory panel room at 22-25° C. over three different sessions by a trained panel of 8 to 10 individuals.
For recording the taste profiles, samples are prepared as indicated in the examples below. Taste profiles of samples are determined in a triangle test in three different sessions. Panellists refrain from eating or drinking for at least 1 hour prior to the session. At the start of the session and before each trial, the subject rinsed with water and expectorated. The participants receive a set of two blanks and one taste sample. Liquid samples are swirled around in the mouth briefly and expectorated. Solid samples are chewed for 20 seconds and then expectorated. […] Each sample with additive is compared to two reference samples without additives. Kokumi intensity is rated according to a scale from 0 to 5 (with 5 most intensive). The additive is added to a consumable and the sample is homogenised. The samples are presented to the sensory panel directly after homogenisation. The sensory panel in all tests included 8 trained individuals.
Chicken Broth is prepared by dilution of 3 g chicken broth concentrate (Gourmet Bouillon Huhn; Maggi, Singen, Germany) with 100 ml water (Evian). Additives are added as specified in table below.
For each sample, kokumi intensity is rated and panelists are asked to describe sensory characteristics.

trained sensory panel [2] = assay: Sensory triangle test, kokumi compounds in tomato juice; conditions: for Panelists preferring the sample: panel of 8; for Test results (taste description): versus reference without additives
Experimental: Unless otherwise indicated, all sensory tests are triangle tests and are performed according to the guidelines in “[…] von […]-und Bedarfsgegenständegesetz)”; L 00.90 7, Untersuchung von Lebensmitteln, Sensorische […] Deutschen Norm DIN ISO 4120, Ausgabe Januar 1995), as follows: All sensory analyses are performed in a sensory panel room at 22-25° C. over three different sessions by a trained panel of 8 to 10 individuals. For recording the taste profiles, samples are prepared as indicated in the examples below. Taste profiles of samples are determined in a triangle test in three different sessions. Panellists refrain from eating or drinking for at least 1 hour prior to the session. At the start of the session and before each trial, the subject rinsed with water and expectorated. The participants receive a set of two blanks and one taste sample. Liquid samples are swirled around in the mouth briefly and expectorated. Solid samples are chewed for 20 seconds and then expectorated. […] Each sample with additive is compared to two reference samples without additives. Kokumi intensity is rated according to a scale from 0 to 5 (with 5 most intensive). The additive is added to a consumable and the sample is homogenised. The samples are presented to the sensory panel directly after homogenisation. The sensory panel in all tests included 8 trained individuals. Compounds as indicated in the table below are added to tomato juice (Albi, Germany) in the concentrations indicated below.

trained sensory panel [3] = assay: Sensory triangle test, kokumi compounds in ketchup; conditions: 2500 ppm; for Panelists indicating more meaty, bouillon-like, intensified overall taste: panel of 8
Experimental: Unless otherwise indicated, all sensory tests are triangle tests and are performed according to the guidelines in “[…] von […]-und Bedarfsgegenständegesetz)”; L 00.90 7, Untersuchung von Lebensmitteln, Sensorische […] Deutschen Norm DIN ISO 4120, Ausgabe Januar 1995), as follows: All sensory analyses are performed in a sensory panel room at 22-25° C. over three different sessions by a trained panel of 8 to 10 individuals. For recording the taste profiles, samples are prepared as indicated in the examples below. Taste profiles of samples are determined in a triangle test in three different sessions. Panellists refrain from eating or drinking for at least 1 hour prior to the session. At the start of the session and before each trial, the subject rinsed with water and expectorated. The participants receive a set of two blanks and one taste sample. Liquid samples are swirled around in the mouth briefly and expectorated. Solid samples are chewed for 20 seconds and then expectorated. […] Each sample with additive is compared to two reference samples without additives. Kokumi intensity is rated according to a scale from 0 to 5 (with 5 most intensive). The additive is added to a consumable and the sample is homogenised. The samples are presented to the sensory panel directly after homogenisation. The sensory panel in all tests included 8 trained individuals. Compounds as indicated in the table below are added to ketchup (Kraft) in a concentration of 2500 ppm.

[4] = additive 10 mmol/L, pH 6.5, scale 0 to 5 (5 most intensive), broth without additives rated 2

Question: For `N[C@@H](CCC(=O)N[C@@H](CS)C(=O)NCC(=O)O)C(=O)O` [GSH, reduced form, Gamma-L-glutamyl-L-cysteinyl-glycine], which “Kokumi intensity (0-5)” value (trained sensory panel [1]; [4]) is on record?
Answer: 3.5

Question: With `N[C@@H](CCC(=O)O)C(=O)[O-].[Na+]` [MSG, mono sodium glutamate] as the molecule, how does the “Kokumi intensity (0-5)” value (trained sensory panel [1]; [4]) read?
Answer: 2

Question: And the Sensory descriptors (trained sensory panel [1]; additive 10 mmol/L)?
Answer: higher umami (taste of MSG) intensity; also recorded: no effect on mouthfulness and complexity of the taste profile; also recorded: Increased umami taste

Question: Which “Kokumi intensity (0-5)” value (trained sensory panel [1]; additive 30 mmol/L, pH 6.5, scale 0 to 5, broth without additives rated 2) does the source give for `[Cl-].[Na+]` [NaCl] here?
Answer: 2

Question: And the Sensory descriptors (trained sensory panel [1]; additive 30 mmol/L)?
Answer: more salty than the negative control; also recorded: no effect on mouthfulness and complexity of the taste profile; also recorded: increased salty taste

Question: For `CCOC(=O)CC(SC[C@H](NC(=O)CC[C@H](N)C(=O)O)C(=O)O)C(=O)OCC` (stereo partly drawn) [S-(α,β-dicarboxyethyl diethylester) γ-L-glutamyl-L-cysteine], which “Kokumi intensity (0-5)” value (trained sensory panel [1]; [4]) is on record?
Answer: 4.5

Question: And the “Panelists preferring the sample” value (trained sensory panel [2]; 1000 ppm)?
Answer: all panelists

Question: And the “Test results (taste description)” value (trained sensory panel [2]; 1000 ppm)?
Answer: even more pronounced kokumi sensation

Question: And the “Panelists indicating more meaty, bouillon-like, intensified overall taste” value (trained sensory panel [3])?
Answer: 7 out of 8

Question: For `CCOC(=O)CC(SC[C@H](NC(=O)CC[C@H](N)C(=O)O)C(=O)NCC(=O)O)C(=O)OCC` (stereo partly drawn) [S-(α,β-dicarboxyethyl diethylester) γ-L-glutamyl-L-cysteinyl-glycine], which “Kokumi intensity (0-5)” value (trained sensory panel [1]; [4]) is on record?
Answer: 3.5

Question: What about the “Panelists preferring the sample” value (trained sensory panel [2]; 1000 ppm) of the same molecule?
Answer: 6 out of 8

Question: And the “Test results (taste description)” value (trained sensory panel [2]; 1000 ppm)?
Answer: more intensive and well-balanced kokumi taste

Question: What about the “Test results (taste description)” value (trained sensory panel [2]; 5000 ppm) of the same molecule?
Answer: increased with ascending concentrations

Question: And the “Observed effect compared to S-(α,β-dicarboxyethyl diethylester) γ-L-glutamyl-L-cysteine” value (trained sensory panel [3])?
Answer: lower

Question: And the “Panelists indicating more meaty, bouillon-like, intensified overall taste” value (trained sensory panel [3])?
Answer: 7 out of 8

Question: How did the “Kokumi intensity (0-5)” value (trained sensory panel [1]; [4]) turn out when `COC(=O)CC(SC[C@H](NC(=O)CC[C@H](N)C(=O)O)C(=O)O)C(=O)OC` (stereo partly drawn) [S-(α,β-dicarboxyethyl dimethylester) γ-L-glutamyl-L-cysteine] was run?
Answer: 4.5

Question: For `COC(=O)CC(SC[C@H](NC(=O)CC[C@H](N)C(=O)O)C(=O)NCC(=O)O)C(=O)OC` (stereo partly drawn) [S-(α,β-dicarboxyethyl dimethylester) γ-L-glutamyl-L-cysteinyl-glycine], which “Kokumi intensity (0-5)” value (trained sensory panel [1]; [4]) is on record?
Answer: 3.5

Question: `CCCOC(=O)CC(SC[C@H](NC(=O)CC[C@H](N)C(=O)O)C(=O)O)C(=O)OCCC` (stereo partly drawn) [S-(α,β-dicarboxyethyl dipropylester) γ-L-glutamyl-L-cysteine] was tested. Which Sensory descriptors (trained sensory panel [1]; additive 10 mmol/L) did it give?
Answer: bitter

Question: Which Sensory descriptors (trained sensory panel [1]; additive 10 mmol/L) does the source give for `CCCOC(=O)CC(SC[C@H](NC(=O)CC[C@H](N)C(=O)O)C(=O)NCC(=O)O)C(=O)OCCC` (stereo partly drawn) [S-(α,β-dicarboxyethyl dipropylester) γ-L-glutamyl-L-cysteinyl-glycine] here?
Answer: bitter
